Source: PMC11233931, “Remodeling tumor‐associated macrophage for anti‐cancer effects by rational design of irreversible inhibition of mitogen‐activated protein kinase‐activated protein kinase 2” (MedComm, 2024)

How the values were obtained:
Assay in all cases: Eurofins kinase selectivity profile against 380 other human recombinant kinases (Table S2)
Type in all cases: biochemical
[1] = molecular target: T1, 380 human recombinant protein kinases (Homo sapiens, UniProt P07332); details: Fes(h), read-out: Inhibition rate
T1 construct: purchased Eurofins (Celle Lévescault)
Procedure, shortened: (§1)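 To gauge specificity for MK2, the compound is profiled externally at various concentrations on recombinant human kinases, 380 in total.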

[2] = molecular target: T2, 380 human recombinant protein kinases (Homo sapiens, UniProt P07949); details: Ret(h), read-out: Inhibition rate
T2 construct: purchased Eurofins (Celle Lévescault)
Procedure, shortened: as §1

[3] = molecular target: T3, 380 human recombinant protein kinases (Homo sapiens, UniProt P09769); details: Fgr(h), read-out: Inhibition rate
T3 construct: purchased Eurofins (Celle Lévescault)
Procedure, shortened: as §1

[4] = molecular target: T4, 380 human recombinant protein kinases (Homo sapiens, UniProt P57059); details: SIK(h), read-out: Inhibition rate (%)
T4 construct: purchased Eurofins (Celle Lévescault)
Procedure, shortened: as §1

[5] = molecular target: T5, 380 human recombinant protein kinases (Homo sapiens, UniProt Q00536); details: CDK16/cyclinY(h), read-out: Inhibition rate
T5 construct: purchased Eurofins (Celle Lévescault)
Procedure, shortened: as §1

[6] = molecular target: T6, 380 human recombinant protein kinases (Homo sapiens, UniProt Q05397); details: FAK(h), read-out: Inhibition rate
T6 construct: purchased Eurofins (Celle Lévescault)
Procedure, shortened: as §1

[7] = molecular target: T7, 380 human recombinant protein kinases (Homo sapiens, UniProt Q13188); details: MST2(h), read-out: Inhibition rate
T7 construct: purchased Eurofins (Celle Lévescault)
T7 sequence (Q13188 1-491): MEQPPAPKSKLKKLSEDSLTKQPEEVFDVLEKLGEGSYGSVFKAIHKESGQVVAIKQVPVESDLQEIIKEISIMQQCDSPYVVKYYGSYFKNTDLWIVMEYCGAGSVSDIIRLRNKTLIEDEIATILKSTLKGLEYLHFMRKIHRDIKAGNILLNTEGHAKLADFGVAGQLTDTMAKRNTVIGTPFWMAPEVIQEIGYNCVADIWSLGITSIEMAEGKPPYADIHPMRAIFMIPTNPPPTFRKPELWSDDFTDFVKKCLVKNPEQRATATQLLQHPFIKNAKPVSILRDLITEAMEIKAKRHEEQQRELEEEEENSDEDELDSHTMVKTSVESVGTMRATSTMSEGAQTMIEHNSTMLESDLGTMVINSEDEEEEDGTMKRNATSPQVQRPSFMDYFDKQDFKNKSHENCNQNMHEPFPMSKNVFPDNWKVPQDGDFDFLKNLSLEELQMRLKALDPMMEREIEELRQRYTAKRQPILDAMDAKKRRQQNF
Procedure, shortened: as §1

[8] = molecular target: T8, 380 human recombinant protein kinases (Homo sapiens, UniProt Q15746); details: MLCK(h), read-out: Inhibition rate
T8 construct: purchased Eurofins (Celle Lévescault)
Procedure, shortened: as §1

[9] = molecular target: T9, 380 human recombinant protein kinases (Homo sapiens, UniProt Q15835); details: GRK1(h), read-out: Inhibition rate
T9 construct: purchased Eurofins (Celle Lévescault)
T9 sequence (Q15835 1-563): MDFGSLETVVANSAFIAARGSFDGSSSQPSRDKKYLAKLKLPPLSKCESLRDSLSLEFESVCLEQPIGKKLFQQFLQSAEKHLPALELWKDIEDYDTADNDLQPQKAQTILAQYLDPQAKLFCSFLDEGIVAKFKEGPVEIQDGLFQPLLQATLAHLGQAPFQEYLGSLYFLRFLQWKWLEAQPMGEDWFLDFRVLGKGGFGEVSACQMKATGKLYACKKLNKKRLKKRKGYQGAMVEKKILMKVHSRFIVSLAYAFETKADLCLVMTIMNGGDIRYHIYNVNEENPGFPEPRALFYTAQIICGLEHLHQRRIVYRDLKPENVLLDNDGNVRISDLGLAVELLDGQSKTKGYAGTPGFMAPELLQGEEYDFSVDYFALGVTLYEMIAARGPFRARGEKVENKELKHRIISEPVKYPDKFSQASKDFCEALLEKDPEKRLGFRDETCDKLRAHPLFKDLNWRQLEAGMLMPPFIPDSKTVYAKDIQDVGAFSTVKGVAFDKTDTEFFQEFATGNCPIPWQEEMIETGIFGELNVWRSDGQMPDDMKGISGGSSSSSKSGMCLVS
Procedure, shortened: as §1

[10] = molecular target: T10, 380 human recombinant protein kinases (Homo sapiens, UniProt Q9H422); details: HIPK3(h), read-out: Inhibition rate
T10 construct: purchased Eurofins (Celle Lévescault)
Procedure, shortened: as §1

T4 sequence (P57059 whole entry): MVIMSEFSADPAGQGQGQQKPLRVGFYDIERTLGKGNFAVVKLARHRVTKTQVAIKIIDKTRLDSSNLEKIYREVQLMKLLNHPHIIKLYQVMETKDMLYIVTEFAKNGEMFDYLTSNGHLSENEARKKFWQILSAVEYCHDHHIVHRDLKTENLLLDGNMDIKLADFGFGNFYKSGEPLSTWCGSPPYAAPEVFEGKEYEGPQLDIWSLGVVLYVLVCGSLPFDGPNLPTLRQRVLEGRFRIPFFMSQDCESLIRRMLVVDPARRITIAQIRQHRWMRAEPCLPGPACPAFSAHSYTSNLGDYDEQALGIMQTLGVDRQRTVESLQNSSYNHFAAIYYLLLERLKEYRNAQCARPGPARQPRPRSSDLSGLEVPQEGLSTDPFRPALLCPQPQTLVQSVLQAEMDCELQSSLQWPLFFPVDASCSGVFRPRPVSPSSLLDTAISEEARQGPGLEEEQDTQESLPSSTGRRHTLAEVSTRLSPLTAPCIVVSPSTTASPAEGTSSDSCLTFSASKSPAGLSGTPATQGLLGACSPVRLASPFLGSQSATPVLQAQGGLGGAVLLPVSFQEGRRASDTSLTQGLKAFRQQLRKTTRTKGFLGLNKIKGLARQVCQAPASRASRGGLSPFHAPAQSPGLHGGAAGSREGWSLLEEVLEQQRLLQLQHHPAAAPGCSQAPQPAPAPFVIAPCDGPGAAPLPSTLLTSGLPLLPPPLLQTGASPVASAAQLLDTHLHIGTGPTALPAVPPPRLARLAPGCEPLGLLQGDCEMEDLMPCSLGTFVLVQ
T2 sequence (P07949 29-1114): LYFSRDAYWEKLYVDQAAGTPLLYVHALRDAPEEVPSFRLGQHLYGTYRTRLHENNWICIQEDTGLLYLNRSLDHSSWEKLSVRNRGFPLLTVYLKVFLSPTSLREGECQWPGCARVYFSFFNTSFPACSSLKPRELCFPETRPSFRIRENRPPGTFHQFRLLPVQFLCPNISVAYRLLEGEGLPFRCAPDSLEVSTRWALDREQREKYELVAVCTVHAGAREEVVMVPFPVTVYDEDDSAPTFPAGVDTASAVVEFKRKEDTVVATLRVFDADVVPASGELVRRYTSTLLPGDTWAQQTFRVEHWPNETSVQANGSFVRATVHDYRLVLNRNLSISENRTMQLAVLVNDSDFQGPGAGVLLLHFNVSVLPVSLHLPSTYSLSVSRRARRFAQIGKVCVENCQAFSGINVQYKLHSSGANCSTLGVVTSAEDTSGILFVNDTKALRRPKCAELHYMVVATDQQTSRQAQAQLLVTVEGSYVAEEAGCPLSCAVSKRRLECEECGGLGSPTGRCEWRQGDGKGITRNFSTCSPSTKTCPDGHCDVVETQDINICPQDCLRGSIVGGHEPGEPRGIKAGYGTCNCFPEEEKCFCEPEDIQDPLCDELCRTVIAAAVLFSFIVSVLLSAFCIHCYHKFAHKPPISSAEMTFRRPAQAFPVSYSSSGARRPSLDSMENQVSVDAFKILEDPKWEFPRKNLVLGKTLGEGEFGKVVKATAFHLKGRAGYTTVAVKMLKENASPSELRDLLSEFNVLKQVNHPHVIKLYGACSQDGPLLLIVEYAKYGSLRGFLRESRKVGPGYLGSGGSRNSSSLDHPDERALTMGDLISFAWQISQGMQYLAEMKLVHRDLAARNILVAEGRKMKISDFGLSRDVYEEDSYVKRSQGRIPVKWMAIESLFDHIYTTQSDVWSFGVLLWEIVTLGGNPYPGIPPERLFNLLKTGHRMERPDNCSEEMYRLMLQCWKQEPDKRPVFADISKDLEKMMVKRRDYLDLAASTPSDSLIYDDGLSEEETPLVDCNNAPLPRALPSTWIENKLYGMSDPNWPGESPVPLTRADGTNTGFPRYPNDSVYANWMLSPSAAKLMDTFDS
T3 sequence (P09769 whole entry): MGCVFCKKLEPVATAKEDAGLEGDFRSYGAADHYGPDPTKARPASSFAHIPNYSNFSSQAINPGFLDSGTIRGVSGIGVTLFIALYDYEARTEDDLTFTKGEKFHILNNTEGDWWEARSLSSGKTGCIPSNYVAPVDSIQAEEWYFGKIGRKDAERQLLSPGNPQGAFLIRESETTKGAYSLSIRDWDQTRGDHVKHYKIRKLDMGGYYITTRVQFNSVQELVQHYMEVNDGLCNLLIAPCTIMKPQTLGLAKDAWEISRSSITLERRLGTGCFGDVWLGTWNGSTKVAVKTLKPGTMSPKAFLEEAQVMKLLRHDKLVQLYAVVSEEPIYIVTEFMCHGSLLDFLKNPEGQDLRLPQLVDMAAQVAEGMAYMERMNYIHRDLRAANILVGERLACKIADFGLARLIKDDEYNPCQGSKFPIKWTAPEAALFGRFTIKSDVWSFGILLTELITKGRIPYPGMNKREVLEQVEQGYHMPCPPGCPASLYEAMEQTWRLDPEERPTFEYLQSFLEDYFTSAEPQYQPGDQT
T8 sequence (Q15746 whole entry): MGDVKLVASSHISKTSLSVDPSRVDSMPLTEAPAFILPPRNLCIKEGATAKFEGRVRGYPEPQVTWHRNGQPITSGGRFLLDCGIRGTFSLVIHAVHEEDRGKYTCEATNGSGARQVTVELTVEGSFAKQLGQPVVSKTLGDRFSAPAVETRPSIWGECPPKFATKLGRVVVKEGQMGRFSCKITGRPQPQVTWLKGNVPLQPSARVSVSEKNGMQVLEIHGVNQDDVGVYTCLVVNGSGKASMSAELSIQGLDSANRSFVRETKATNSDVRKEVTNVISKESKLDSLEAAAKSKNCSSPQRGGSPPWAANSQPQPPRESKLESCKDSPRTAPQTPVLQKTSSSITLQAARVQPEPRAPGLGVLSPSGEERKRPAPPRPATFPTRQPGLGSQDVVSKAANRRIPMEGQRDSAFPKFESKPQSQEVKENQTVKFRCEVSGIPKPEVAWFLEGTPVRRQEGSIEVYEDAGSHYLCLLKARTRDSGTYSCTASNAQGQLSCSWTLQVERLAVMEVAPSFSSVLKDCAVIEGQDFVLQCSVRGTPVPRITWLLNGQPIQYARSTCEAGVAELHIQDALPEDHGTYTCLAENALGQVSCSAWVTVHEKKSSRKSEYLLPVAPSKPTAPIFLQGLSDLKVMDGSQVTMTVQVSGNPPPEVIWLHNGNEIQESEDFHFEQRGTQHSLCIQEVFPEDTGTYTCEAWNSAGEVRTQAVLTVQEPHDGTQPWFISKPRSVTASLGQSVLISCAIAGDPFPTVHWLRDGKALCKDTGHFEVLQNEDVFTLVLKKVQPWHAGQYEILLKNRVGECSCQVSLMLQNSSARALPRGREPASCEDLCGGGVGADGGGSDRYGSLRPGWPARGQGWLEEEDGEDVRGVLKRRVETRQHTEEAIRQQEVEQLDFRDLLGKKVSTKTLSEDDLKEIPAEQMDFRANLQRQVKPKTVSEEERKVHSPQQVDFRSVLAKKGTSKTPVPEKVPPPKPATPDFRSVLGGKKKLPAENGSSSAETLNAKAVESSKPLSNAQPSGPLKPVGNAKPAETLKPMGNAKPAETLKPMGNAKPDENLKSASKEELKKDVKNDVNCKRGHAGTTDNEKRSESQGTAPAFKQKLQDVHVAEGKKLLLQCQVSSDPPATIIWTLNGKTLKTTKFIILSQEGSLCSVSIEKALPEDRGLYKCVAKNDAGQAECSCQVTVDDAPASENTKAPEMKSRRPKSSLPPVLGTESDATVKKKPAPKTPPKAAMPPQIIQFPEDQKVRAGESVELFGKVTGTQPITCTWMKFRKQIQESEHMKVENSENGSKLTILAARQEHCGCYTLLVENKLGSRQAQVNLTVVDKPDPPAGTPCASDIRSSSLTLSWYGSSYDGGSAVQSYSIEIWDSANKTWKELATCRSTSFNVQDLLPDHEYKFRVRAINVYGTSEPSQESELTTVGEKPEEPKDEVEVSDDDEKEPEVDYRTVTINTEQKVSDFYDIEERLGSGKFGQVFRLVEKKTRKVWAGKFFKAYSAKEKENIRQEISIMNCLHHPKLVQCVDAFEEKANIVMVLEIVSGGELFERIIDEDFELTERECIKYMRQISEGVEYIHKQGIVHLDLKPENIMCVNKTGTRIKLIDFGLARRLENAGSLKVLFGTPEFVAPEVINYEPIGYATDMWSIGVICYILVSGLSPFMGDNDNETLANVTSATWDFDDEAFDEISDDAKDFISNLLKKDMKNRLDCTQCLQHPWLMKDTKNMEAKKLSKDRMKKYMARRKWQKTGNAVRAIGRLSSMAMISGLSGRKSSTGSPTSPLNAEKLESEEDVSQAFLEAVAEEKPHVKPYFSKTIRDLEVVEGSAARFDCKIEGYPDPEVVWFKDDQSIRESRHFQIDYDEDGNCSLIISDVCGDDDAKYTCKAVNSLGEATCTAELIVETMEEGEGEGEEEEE
T5 sequence (Q00536 whole entry): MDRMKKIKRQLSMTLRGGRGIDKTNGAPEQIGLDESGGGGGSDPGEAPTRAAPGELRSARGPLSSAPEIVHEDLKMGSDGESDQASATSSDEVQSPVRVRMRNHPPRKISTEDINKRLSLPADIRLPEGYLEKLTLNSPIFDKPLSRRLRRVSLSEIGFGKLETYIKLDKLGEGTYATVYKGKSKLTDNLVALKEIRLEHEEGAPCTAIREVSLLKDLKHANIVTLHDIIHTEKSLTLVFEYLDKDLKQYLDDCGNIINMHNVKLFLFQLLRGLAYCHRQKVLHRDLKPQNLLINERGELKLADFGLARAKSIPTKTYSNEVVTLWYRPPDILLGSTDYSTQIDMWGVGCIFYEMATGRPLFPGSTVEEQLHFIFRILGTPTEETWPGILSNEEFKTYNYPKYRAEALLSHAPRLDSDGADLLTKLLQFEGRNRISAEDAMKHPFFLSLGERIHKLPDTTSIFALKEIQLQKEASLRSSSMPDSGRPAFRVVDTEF

## C=CC(=O)Nc1cc(-c2cc(-c3cc4c([nH]3)CCNC4=O)ccn2)ccc1OC(F)(F)F [compound 11]
[1]; 10 nM
  inhibition at 0.01 µM: -7%
[1]; 100 nM
  inhibition at 0.1 µM: -5%
[1]; 1000 nM
  inhibition at 1 µM: 0%
[2]; 10 nM
  inhibition at 0.01 µM: 12%
[2]; 100 nM
  inhibition at 0.1 µM: 2%
[2]; 1000 nM
  inhibition at 1 µM: 1%
[3]; 10 nM
  inhibition at 0.01 µM: 1%
[3]; 100 nM
  inhibition at 0.1 µM: 0%
[3]; 1000 nM
  inhibition at 1 µM: 0%
[4]; 10 nM
  inhibition at 0.01 µM: 2%
[4]; 100 nM
  inhibition at 0.1 µM: 4%
[4]; 1000 nM
  inhibition at 1 µM: -3%
[5]; 10 nM
  inhibition at 0.01 µM: -1%
[5]; 100 nM
  inhibition at 0.1 µM: 7%
[5]; 1000 nM
  inhibition at 1 µM: -13%
[6]; 10 nM
  inhibition at 0.01 µM: -10%
[6]; 100 nM
  inhibition at 0.1 µM: -1%
[6]; 1000 nM
  inhibition at 1 µM: 1%
[7]; 10 nM
  inhibition at 0.01 µM: -7%
[7]; 100 nM
  inhibition at 0.1 µM: 0%
[7]; 1000 nM
  inhibition at 1 µM: 6%
[8]; 10 nM
  inhibition at 0.01 µM: -10%
[8]; 100 nM
  inhibition at 0.1 µM: 0%
[8]; 1000 nM
  inhibition at 1 µM: 34%
[9]; 10 nM
  inhibition at 0.01 µM: -6%
[9]; 100 nM
  inhibition at 0.1 µM: -4%
[9]; 1000 nM
  inhibition at 1 µM: -1%
[10]; 10 nM
  inhibition at 0.01 µM: -9%
[10]; 100 nM
  inhibition at 0.1 µM: -8%
[10]; 1000 nM
  inhibition at 1 µM: 1%
